Reference: patent US20240383905A1, “FGFR INHIBITORS AND METHODS OF USE THEREOF” (3H PHARMACEUTICALS CO., LTD., priority 2021, published 2024)
Read-outs that look alike come from different tables or passages of the source.

Key:
[1] = molecular target: T1, FGFR2 (Homo sapiens, UniProt P21802); assay: FGFR2 Biochemical Caliper Assay (KinEASE-TK kit); conditions: 0.07 nM FGFR2; compound incubated with protein 10 min, reaction 45 min at RT; read-out: FGFR2 Cliper IC50
T1 construct: purchased Carna 08-134
T1 sequence (P21802 22-821): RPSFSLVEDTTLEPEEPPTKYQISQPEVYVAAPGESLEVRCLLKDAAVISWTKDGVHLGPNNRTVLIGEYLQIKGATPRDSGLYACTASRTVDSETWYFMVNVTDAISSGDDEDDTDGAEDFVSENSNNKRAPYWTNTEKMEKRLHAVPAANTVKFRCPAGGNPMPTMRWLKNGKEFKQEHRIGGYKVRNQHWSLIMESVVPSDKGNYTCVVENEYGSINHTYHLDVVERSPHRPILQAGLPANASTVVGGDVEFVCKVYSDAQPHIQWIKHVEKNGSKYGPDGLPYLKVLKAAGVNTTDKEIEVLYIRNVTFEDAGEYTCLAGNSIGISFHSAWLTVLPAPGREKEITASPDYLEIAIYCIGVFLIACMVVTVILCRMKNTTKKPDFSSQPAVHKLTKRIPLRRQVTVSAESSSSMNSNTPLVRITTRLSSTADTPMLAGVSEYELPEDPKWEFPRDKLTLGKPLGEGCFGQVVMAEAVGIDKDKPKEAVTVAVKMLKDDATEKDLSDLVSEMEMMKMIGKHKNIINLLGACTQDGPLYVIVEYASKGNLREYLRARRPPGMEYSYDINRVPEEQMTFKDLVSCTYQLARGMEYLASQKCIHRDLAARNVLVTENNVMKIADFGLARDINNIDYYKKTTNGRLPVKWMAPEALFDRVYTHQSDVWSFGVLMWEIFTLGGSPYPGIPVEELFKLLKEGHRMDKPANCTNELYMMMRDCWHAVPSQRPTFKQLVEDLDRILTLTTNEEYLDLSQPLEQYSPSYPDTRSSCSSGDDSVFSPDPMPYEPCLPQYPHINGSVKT

[2] = molecular target: T2, FGFR1 (Homo sapiens, UniProt P11362); assay: FGFR1 Biochemical Caliper Assay (KinEASE-TK kit); conditions: ratio FGFR1/FGFR2 of the biochemical assay
T2 construct: purchased Carna 08-133
T2 sequence (P11362 22-822): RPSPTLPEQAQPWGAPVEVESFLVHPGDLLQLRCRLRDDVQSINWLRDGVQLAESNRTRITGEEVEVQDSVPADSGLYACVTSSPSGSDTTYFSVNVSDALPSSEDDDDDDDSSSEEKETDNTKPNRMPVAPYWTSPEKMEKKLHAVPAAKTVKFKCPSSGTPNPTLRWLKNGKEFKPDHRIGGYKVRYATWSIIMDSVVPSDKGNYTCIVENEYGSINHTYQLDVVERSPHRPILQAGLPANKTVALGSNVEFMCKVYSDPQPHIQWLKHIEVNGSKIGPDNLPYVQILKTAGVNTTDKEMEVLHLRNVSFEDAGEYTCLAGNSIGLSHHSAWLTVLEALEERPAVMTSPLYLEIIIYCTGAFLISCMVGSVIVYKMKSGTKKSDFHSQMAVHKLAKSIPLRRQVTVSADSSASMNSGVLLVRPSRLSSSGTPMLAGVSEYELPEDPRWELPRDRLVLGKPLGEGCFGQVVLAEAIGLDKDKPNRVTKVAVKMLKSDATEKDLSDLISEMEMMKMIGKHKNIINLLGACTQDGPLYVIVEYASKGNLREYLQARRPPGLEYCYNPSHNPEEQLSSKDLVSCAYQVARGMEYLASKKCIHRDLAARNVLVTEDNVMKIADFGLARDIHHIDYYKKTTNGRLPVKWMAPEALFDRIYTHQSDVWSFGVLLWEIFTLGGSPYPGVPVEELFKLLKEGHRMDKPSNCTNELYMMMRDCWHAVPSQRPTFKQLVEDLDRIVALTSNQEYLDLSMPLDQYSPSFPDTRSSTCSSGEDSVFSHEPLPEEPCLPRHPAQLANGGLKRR
Procedure, shortened: (§1)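 KinEASE-TK HTRF readout: enzyme at 0.2 nM (FGFR1, FGFR3) preincubated 10 min at RT with 10-point 3-fold compound dilutions before TK-substrate/ATP start.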

[3] = molecular target: T3, FGFR3 (Homo sapiens, UniProt P22607); assay: FGFR3 Biochemical Caliper Assay (KinEASE-TK kit); conditions: ratio FGFR3/FGFR2 of the biochemical assay
T3 construct: purchased Carna 08-135
T3 sequence (P22607 23-806): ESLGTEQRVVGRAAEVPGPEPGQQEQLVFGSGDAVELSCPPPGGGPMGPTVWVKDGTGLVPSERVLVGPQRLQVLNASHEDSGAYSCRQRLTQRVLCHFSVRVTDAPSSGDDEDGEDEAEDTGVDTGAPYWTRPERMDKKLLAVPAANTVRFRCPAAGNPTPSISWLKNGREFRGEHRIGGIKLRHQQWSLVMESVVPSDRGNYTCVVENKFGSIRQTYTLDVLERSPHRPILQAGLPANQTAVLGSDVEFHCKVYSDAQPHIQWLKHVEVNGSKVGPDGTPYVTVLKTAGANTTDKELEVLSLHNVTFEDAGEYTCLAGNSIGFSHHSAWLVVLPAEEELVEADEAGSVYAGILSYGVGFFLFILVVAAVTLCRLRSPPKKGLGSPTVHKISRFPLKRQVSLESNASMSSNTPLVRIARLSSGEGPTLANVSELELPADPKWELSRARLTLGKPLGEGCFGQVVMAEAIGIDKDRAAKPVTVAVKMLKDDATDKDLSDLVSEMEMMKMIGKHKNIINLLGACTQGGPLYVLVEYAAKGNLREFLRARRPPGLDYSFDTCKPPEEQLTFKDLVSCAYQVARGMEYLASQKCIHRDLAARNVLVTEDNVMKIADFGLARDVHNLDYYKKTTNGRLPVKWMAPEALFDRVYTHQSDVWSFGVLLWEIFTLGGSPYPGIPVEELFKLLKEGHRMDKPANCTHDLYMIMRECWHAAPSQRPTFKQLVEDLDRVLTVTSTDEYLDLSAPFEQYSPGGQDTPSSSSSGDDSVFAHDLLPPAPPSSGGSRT
Procedure, shortened: as §1

[4] = system: SNU16 cells; assay: SNU16 Cancer Cell Line Proliferation Assay (CellTiter-Glo); format: cell-based
Procedure, shortened: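 Luminescent ATP read-out after 72 h at 37 °C gave IC50 values; compounds tested as 9 three-fold serial dilutions on 5000 SNU16 cells per well, with DMSO as control.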

## C=CC(=O)Nc1ccc(-c2[nH]c3c(C#N)cnc(N)c3c2-c2ccc(C(=O)NCC(F)(F)F)c(OC)c2)cc1 [Compound 248]
[1]
  IC50: < 5 nM
[2]
  Selectivity FGFR1/FGFR2: C (Selectivity of FGFR1/FGFR2 less than 200 but greater than or equal to 100)
[3]
  Selectivity FGFR3/FGFR2: A+ (Selectivity of FGFR3/FGFR2 greater or equal to 150)
[4]; Homo sapiens, SNU-16, 72 h
  IC50: ≤ 10 nM

## C=CC(=O)Nc1ccc(-c2nn3ncnc(N)c3c2-c2ccc(C(=O)NC3CC(F)(F)C3)c(OC)c2)cc1 [Compound 98, 4-(6-(4-acrylamidophenyl)-4-aminopyrazolo[5,1-f] [1,2,4]triazin-5-yl)-N-(3,3-difluorocyclobutyl)-2-methoxybenzamide]
[1]
  IC50: < 5 nM
[2]
  Selectivity FGFR1/FGFR2: A+ (Selectivity of FGFR1/FGFR2 greater or equal to 500)
[3]
  Selectivity FGFR3/FGFR2: A+ (Selectivity of FGFR3/FGFR2 greater or equal to 150)
[4]; Homo sapiens, SNU-16, 72 h
  IC50: ≤ 10 nM

## C=C(F)C(=O)Nc1ccc(-c2nn3ncnc(N)c3c2-c2ccc(C(=O)NC3CC3(F)F)c(OC)c2)c(F)c1 (stereo not drawn) [Compound 271]
[1]
  IC50: < 5 nM
[2]
  Selectivity FGFR1/FGFR2: C (Selectivity of FGFR1/FGFR2 less than 200 but greater than or equal to 100)
[3]
  Selectivity FGFR3/FGFR2: B (Selectivity of FGFR3/FGFR2 less than 100 but greater than or equal to 25)
[4]; Homo sapiens, SNU-16, 72 h
  IC50: ≤ 10 nM

## C=C(C)C(=O)Nc1ccc(-c2nn3ncnc(N)c3c2-c2ccc(Oc3nccc(C)n3)c(F)c2)c(C)c1 [Compound 450]
[1]
  IC50: > 10 nM
[2]
  Selectivity FGFR1/FGFR2: A+ (Selectivity of FGFR1/FGFR2 greater or equal to 500)
[3]
  Selectivity FGFR3/FGFR2: B (Selectivity of FGFR3/FGFR2 less than 100 but greater than or equal to 25)
[4]; Homo sapiens, SNU-16, 72 h
  IC50: ≤ 10 nM

## C=CC(=O)Nc1ccc(-c2c(-c3ccc(C(=O)NCCF)c(OC)c3)c3c(N)ncc(C#N)c3n2C)cc1 [Compound 189, 4-(2-(4-acrylamidophenyl)-4-amino-7-cyano-1-methyl-1H-pyrrolo[3,2-c]pyridin-3-yl)-N-(2-fluoroethyl)-2-methoxybenzamide]
[1]
  IC50: < 5 nM
[2]
  Selectivity FGFR1/FGFR2: B (Selectivity of FGFR1/FGFR2 less than 300 but greater than or equal to 200)
[3]
  Selectivity FGFR3/FGFR2: B (Selectivity of FGFR3/FGFR2 less than 100 but greater than or equal to 25)
[4]; Homo sapiens, SNU-16, 72 h
  IC50: ≤ 10 nM

## C=CC(=O)Nc1ccc(-c2c(-c3ccc(C(=O)NCC4CC4)c(OC)c3)c3c(N)ncc(C#N)c3n2C)cc1 [Compound 170]
[1]
  IC50: < 5 nM
[2]
  Selectivity FGFR1/FGFR2: A+ (Selectivity of FGFR1/FGFR2 greater or equal to 500)
[3]
  Selectivity FGFR3/FGFR2: B (Selectivity of FGFR3/FGFR2 less than 100 but greater than or equal to 25)
[4]; Homo sapiens, SNU-16, 72 h
  IC50: ≤ 10 nM

## C=CC(=O)Nc1ccc(-c2nn3ncnc(N)c3c2-c2ccc(C(=O)NCC(C)(C)OC)c(OC)c2)cc1 [Compound 56, 4-(6-(4-acrylamidophenyl)-4-aminopyrazolo[5,1-f] [1,2,4]triazin-5-yl)-2-methoxy-N-(2-methoxy-2-methylpropyl)benzamide]
[1]
  IC50: 5 to 10 nM
[2]
  Selectivity FGFR1/FGFR2: A+ (Selectivity of FGFR1/FGFR2 greater or equal to 500)
[3]
  Selectivity FGFR3/FGFR2: A (Selectivity of FGFR3/FGFR2 less than 150 but greater than or equal to 100)
[4]; Homo sapiens, SNU-16, 72 h
  IC50: ≤ 10 nM

## C=C(F)C(=O)Nc1ccc(-c2nn3ncnc(N)c3c2-c2ccc(C(=O)NCC(C)C)cc2)cc1 [Compound 48, 4-(4-amino-6-(4-(2-fluoroacrylamido)phe-nyl)pyrazolo[5,1-f] [1,2,4]triazin-5-yl)-N-isobutylbenzamide]
[1]
  IC50: < 5 nM
[2]
  Selectivity FGFR1/FGFR2: A+ (Selectivity of FGFR1/FGFR2 greater or equal to 500)
[3]
  Selectivity FGFR3/FGFR2: B (Selectivity of FGFR3/FGFR2 less than 100 but greater than or equal to 25)
[4]; 72 h, read-out: Cell SNU-16 IC50
  IC50: ≤ 10 nM

## C=C(F)C(=O)Nc1ccc(-c2nn3ncnc(N)c3c2-c2ccc(C(=O)NCC3CC3)c(OC)c2)cc1 [Compound 163]
[1]
  IC50: < 5 nM
[2]
  Selectivity FGFR1/FGFR2: A+ (Selectivity of FGFR1/FGFR2 greater or equal to 500)
[3]
  Selectivity FGFR3/FGFR2: A+ (Selectivity of FGFR3/FGFR2 greater or equal to 150)
[4]; Homo sapiens, SNU-16, 72 h
  IC50: ≤ 10 nM

## C=CC(=O)Nc1ccc(-c2nn3ncnc(N)c3c2-c2ccc(Oc3nccc(CC)n3)c(F)c2)cc1 [Compound 400, N-(4-(4-amino-5-(4-((4-ethylpyrimidin-2-yl)oxy)-3-fluorophenyl)pyrazolo[5,1-f][1,2,4]triazin-6-yl)phenyl)acrylamide]
[1]
  IC50: < 5 nM
[2]
  Selectivity FGFR1/FGFR2: A+ (Selectivity of FGFR1/FGFR2 greater or equal to 500)
[3]
  Selectivity FGFR3/FGFR2: A+ (Selectivity of FGFR3/FGFR2 greater or equal to 150)
[4]; Homo sapiens, SNU-16, 72 h
  IC50: ≤ 10 nM

## C=CC(=O)Nc1ccc(-c2c(-c3ccc(Oc4nccc(C)n4)c(OC)c3)c3c(N)ncc(C(N)=O)c3n2C)cc1 [Compound 21, 2-(4-acrylamidophenyl)-4-amino-3-(3-methoxy-4-((4-methylpyrimidin-2-yl)oxy)phenyl)-1-methyl-1H-pyrrolo[3,2-c]pyridine-7-carboxamide]
[1]
  IC50: < 5 nM
[2]
  Selectivity FGFR1/FGFR2: A+ (Selectivity of FGFR1/FGFR2 greater or equal to 500)
[3]
  Selectivity FGFR3/FGFR2: A (Selectivity of FGFR3/FGFR2 less than 150 but greater than or equal to 100)
[4]; Homo sapiens, SNU-16, 72 h
  IC50: > 50 nM

## C=CC(=O)Nc1ccc(-c2nn3ncnc(N)c3c2-c2ccc(C(=O)NCC(C)C)c(OC)c2)cc1 [Compound 81, 4-(6-(4-acrylamidophenyl)-4-aminopyrazolo[5,1-f] [1,2,4]triazin-5-yl)-N-isobutyl-2-methoxybenzamide]
[1]
  IC50: < 5 nM
[2]
  Selectivity FGFR1/FGFR2: A+ (Selectivity of FGFR1/FGFR2 greater or equal to 500)
[3]
  Selectivity FGFR3/FGFR2: A+ (Selectivity of FGFR3/FGFR2 greater or equal to 150)
[4]; Homo sapiens, SNU-16, 72 h
  IC50: ≤ 10 nM

## [2H]C([2H])([2H])n1c(-c2ccc(NC(=O)C=C)cc2)c(-c2ccc(C(=O)NCC(F)(F)F)c(OC)c2)c2c(N)ncc(C#N)c21 [Compound 355, 4-(2-(4-acrylamidophenyl)-4-amino-7-cyano-1-(methyl-d3)-1H-pyrrolo[3,2-c]pyridin-3-yl)-2-methoxy-N-(2,2,2-trifluoroethyl)benzamide]
[1]
  IC50: < 5 nM
[2]
  Selectivity FGFR1/FGFR2: A (Selectivity of FGFR1/FGFR2 less than 500 but greater than or equal to 300)
[3]
  Selectivity FGFR3/FGFR2: A+ (Selectivity of FGFR3/FGFR2 greater or equal to 150)
[4]; Homo sapiens, SNU-16, 72 h
  IC50: ≤ 10 nM

## C=CC(=O)Nc1ccc(-c2[nH]c3c(C#N)cnc(N)c3c2-c2ccc(C(=O)NC3CC3)c(OC)c2)cc1 [Compound 23, 4-(2-(4-acrylamidophenyl)-4-amino-7-cyano-1H-pyrrolo[3,2-c]pyridin-3-yl)-N-cyclopropyl-2-methoxybenzamide]
[1]
  IC50: < 5 nM
[2]
  Selectivity FGFR1/FGFR2: A+ (Selectivity of FGFR1/FGFR2 greater or equal to 500)
[3]
  Selectivity FGFR3/FGFR2: A (Selectivity of FGFR3/FGFR2 less than 150 but greater than or equal to 100)
[4]; Homo sapiens, SNU-16, 72 h
  IC50: ≤ 10 nM

## C=CC(=O)Nc1ccc(-c2nn3ncnc(N)c3c2-c2ccc(C(=O)NC3CC(F)C3)c(OC)c2)cc1 (stereo not drawn) [Compound 184, 4-(6-(4-acrylamidophenyl)-4-aminopyrazolo[5,1-f][1,2,4]triazin-5-yl)-N-(3-fluorocyclobutyl)-2-methoxybenzamide]
[1]
  IC50: < 5 nM
[2]
  Selectivity FGFR1/FGFR2: A (Selectivity of FGFR1/FGFR2 less than 500 but greater than or equal to 300)
[3]
  Selectivity FGFR3/FGFR2: A+ (Selectivity of FGFR3/FGFR2 greater or equal to 150)
[4]; Homo sapiens, SNU-16, 72 h
  IC50: ≤ 10 nM
